Marks after values point to notes of the source that are not given here.
Assays:
[1] = human; cited from earlier work
[2] = tested on: painful peripheral neuropathy; conditions: rat model of painful peripheral neuropathy; cited from earlier work
[3] = LC/MS quantification of felbamate and metabolites in patient urine; type: in vivo, human; conditions: highest value; patient with total daily dose of 6.0 grams of felbamate
Description: Preparation of Patient Urine Samples.
Urine samples were obtained from patient volunteers undergoing felbamate therapy for control of epileptic seizures and under the care of physicians at either the University of Virginia (Charlottesville, Va.) or the EpiCare Center (Memphis, Tenn.). Urine samples were diluted four fold with distilled water (this was done prior to overnight shipment for samples requiring shipping) and placed in an orbital shaking water bath for ˜20 min at 37° C. to insure that all of the analytes were in solution. 500 μL of this diluted sample were removed and added to 100 μL of a mixture of the four deuterated internal standards. […] After mixing, 200 μL were removed and added to 20 μL of 20% H0Ac. […] This fraction was then analyzed by LC/MS without further manipulation.
LC/MS Analysis of Urine Samples for Metabolite Quantification.
LC/MS analysis was performed using a Waters 2690 HPLC equipped with an autosampler and a Waters 486 tunable absorbance detector. […] The post-column flow was directed through a Waters 486 tunable absorbance detector (10 μL flow cell, λ=214 nm) which was used for qualitative assessment of the sample and not for quantitation. […]
Quantification was achieved by integration of the peaks from the mass chromatogram for each analyte using software (Navigator 1.1) provided with the LCQ. […]

[4] = tested on: MES-induced seizure spread; experiment: Maximal electroshock seizure (MES) test, mice i.p.; type: in vivo; conditions: mice, 30 mg/kg, at both 30 minutes and 4 hours
From the text: (§1) The fluoro derivatives synthesized were submitted to the National Institute of Neurological Disorders and Stroke (NINDS) for evaluation in a standard panel of assays. Two convulsant tests (MES and scMET), and a toxicity screen (rotorod in mice, positional sense and gait in rats) were employed for evaluating the compounds activity as neuroprotecting agents. These testing procedures are described in detail in Molecular and Cellular Targets for Anti-epileptic Drugs, eds. G. Avanzini, G. Regesta, P. Tanganelli, M. Avoli, 1997, John Libbey & Company Ltd, pp 191-198. The felbamate derivatives were evaluated for anticonvulsant activity following intraperitoneal (i.p.) administration in mice and oral administration in rats.
(§2) The Maximal Electroshock Seizure (MES)
(§3) The MES test is a model for generalized tonic-clonic seizures and is used to identify compounds which prevent seizure spread. The behavioral and electrographic seizures generated in this model are consistent with the human disorder. In the MES test, an electrical stimulus of 0.2 s in duration (50 mA in mice and 150 mA in rat at 60 Hz) was delivered via corneal electrodes primed with an electrolyte solution containing an anesthetic agent. Mice were tested at 30 minutes and 4 hours following doses of 30, 100 and 300 mg/kg of test compound. Rats were tested at time intervals between 0.25 and 4 hours following a standard oral dose of 30 mg/kg. Abolition of the hindlimb tonic extensor component indicates the test compound's ability to inhibit MES-induced seizure spread.
(§4) For the MES and scMET tests the data is presented in the form of the number of animals protected by the administered compound/total number of animals tested. […] Qualitative data was obtained for fluoro felbamate 12 (Tables 1 and 2A), fluoro monocarbamate felbamate 13 (Tables 1 and 2B), and fluorodioxo 16 (Tables 1 and 2C) and for cyclic felbamate 21 (Tables 5 and 6B) and cyclic monocarbamate 22 (Tables 5 and 6A). More extensive quantitative data was also obtained for fluoro felbamate 12 in mice (Table 3) and rats (Table 4).

[5] = Toxicity, oral administration to mice; type: in vivo; conditions: doses up to 218 mg/kg
Description: Toxicity induced by a compound is detected in mice using the standardized rotorod test described by Dunham & Miya (1957). Untreated control mice, when placed on a 6 r.p.m. rotation rod, can maintain their equilibrium for a prolonged period of time.
Toxicity across time doe not occur until dosages of 300 mg/kg. […] Quantitative results obtained for fluoro felbamate 12 in mice indicated a MES ED50 of approximately 20 mg/kg with a safety ratio of at least five (see Table 3). Results obtained for oral administration of fluoro felbamate 12 to rats indicated a MES ED50 of about 3 mg/kg with no toxicity at doses up to 500 mg/kg.

[6] = tested on: MES-induced seizure spread; experiment: Maximal electroshock seizure (MES) test, rats p.o.; type: in vivo
From the text: as §1, §2, §3, §4

seizures = experiment: NINDS anticonvulsant panel (MES, scMET), overall statements; type: in vivo
From the text: as §1, §4

[7] = Minimal neurotoxicity (TOX), positional sense and gait and stance tests, rats p.o.; type: in vivo; conditions: for TOX, number of animals exhibiting toxic effects/total number tested: rat p.o., 30 mg/kg
From the text: as §1, with “G. Avanzini, G. Regesta, P. Tanganelli, M. Avoli, 1997, John Libbey & Company Ltd, pp 191-198.” left out
Rats are examined for behavioral toxicity by the positional sense test and a gait and stance test. […] In the gait and stance test, neurotoxicity is indicated by a circular or zigzag gait, ataxia, abnormal spread of the legs, abnormal posture, tremor hyperactivity, lack of exploratory behavior, somnolence, stupor or catalepsy. […]

[8] = tested on: focal seizures of hippocampal kindled rats; experiment: Hippocampal kindling model (kindled rats), i.p.; type: in vivo, Sprague-Dawley rats; conditions: 100 mg/kg
From the text: The Hippocampal Kindling Model
The hippocampal kindling model can be used to evaluate a compound's ability to affect both the expression and acquisition of focal seizures. The hippocampal kindling paradigm as described by Lothman and Williamson (Lothman, 1994) allows the temporal effects of a drug to be evaluated in a single animal. This procedure requires the surgical placement of bipolar electrodes in the ventral hippocampus of adult male Sprague-Dawley rats. Stage five behavioral seizures are produced by using a stimulus consisting of a 50 Hz, 10 s train of 1 ms biphasic 200 uA pulses delivered every 30 min for 6 hours (12 stimuli per day) on alternating days for a total of 60 stimulations (five stimulus days). Prior to evaluating a candidate's anticonvulsant activity, a drug free control period consisting of supramaximal stimulations are recorded to verify the stability of a stage five generalized seizure.
A single dose of the candidate compound is then administered intraperitoneally (i.p.), 15 min following the last control stimulation. The anticonvulsant activity of the drug is assessed every 30 min for three to four hours starting 15 min after administering the test material. After each stimulation, individual Racine seizure scores and afterdischarge durations are recorded. Rats are used again in drug trials after four to five drug- and stimulus-free days.

[9] = Minimal neurotoxicity (TOX), rotorod test, mice i.p.; type: in vivo; conditions: for TOX, number of animals exhibiting toxic effects/total number tested: mice i.p.
From the text: as §1, with “G. Avanzini, G. Regesta, P. Tanganelli, M. Avoli, 1997, John Libbey & Company Ltd, pp 191-198.” left out, “rats. […]” for “rats.”

[10] = Stability of oxazinane-dione at relevant pH; type: physicochemical
From the text: It is anticipated, therefore, that the oxazinane-dione 9 is responsible for some aspects of felbamate's efficacy in vivo. As patients undergoing felbamate therapy for seizure control ingest large quantities of felbamate (grams per day), even a 1-2% conversion to a pharmacologically active metabolite could have significant effects. […] In light of the possibility that the oxazinane-dione 9 could be a metabolic precursor to the major human metabolite, acid carbamate 4, it may be formed in significant quantities (the acid carbamate was reported to represent ˜ 12% of a dose). […] Also included in this class are cyclic congeners 21 and 22, which may be formed from felbamate derivatives (see scheme II). Also included is 20, which may be an unknown metabolite of felbamate 1 and could be produced from felbamate derivative 12 by the cytochrome P450 metabolism.

## NC(=O)CC(C(=O)O)c1ccccc1 (stereo not drawn) [acid carbamate 4, 3-carbamoyl-2-phenylpropionic acid]
[1]
  fraction of a felbamate dose found as acid carbamate: ~12%

## NC(=O)OCC(COC(N)=O)c1ccccc1 [felbamate, 2-phenyl-1,3-propanediol dicarbamate]
[2]
  effect on measures of pain (in words): significant reductions in all measures of pain
[3]
  amount of felbamate excreted per mL of urine: 10,064±515 nMoles/mL

## NC(=O)OCC(F)(COC(N)=O)c1ccccc1 [fluoro felbamate, 2-Fluoro-2-phenyl-1,3-propanediol dicarbamate]
[4]
  MES protection (in words): MES protective effects
[5]
  toxicity: no toxicity
[6]; rat, p.o.
  MES ED50: 3.0 mg/kg
[6]; rats p.o., 30 mg/kg, over several timepoints
  MES protection (in words): full protection
seizures; overall statement
  anti-seizure activity (in words): show anti-seizure activity
seizures; test not specified
  activity relative to felbamate (times more active): 5-10 times
[7]; oral administration to rats, doses up to 500 mg/kg
  toxicity: no toxicity
[7]; 0.25 h
  TOX, number of animals exhibiting toxic effects/total number tested: 0/4
[7]; 0.5 h
  TOX, number of animals exhibiting toxic effects/total number tested: 0/4
[7]; 1.0 h
  TOX, number of animals exhibiting toxic effects/total number tested: 0/4
[7]; 2.0 h
  TOX, number of animals exhibiting toxic effects/total number tested: 0/4
[7]; 4.0 h
  TOX, number of animals exhibiting toxic effects/total number tested: 1/4
[8]
  effect on afterdischarge duration (in words): corresponding decrease in afterdischarge duration
  effect on seizure score (in words): significant drop in seizure score
[8]; Dose Responses, i.p.
  Number Protected / Number Tested: 7/8^a
[9]; 3 mg/kg, 0.5 h
  TOX, number of animals exhibiting toxic effects/total number tested: 0/4
[9]; 3 mg/kg, 4.0 h
  TOX, number of animals exhibiting toxic effects/total number tested: 0/4
[9]; 10 mg/kg, 0.5 h
  TOX, number of animals exhibiting toxic effects/total number tested: 0/4
[9]; 10 mg/kg, 4.0 h
  TOX, number of animals exhibiting toxic effects/total number tested: 0/4
[9]; 30 mg/kg, 0.5 h
  TOX, number of animals exhibiting toxic effects/total number tested: 1/4
[9]; 30 mg/kg, 4.0 h
  TOX, number of animals exhibiting toxic effects/total number tested: 0/2
[9]; 100 mg/kg, 0.5 h
  TOX, number of animals exhibiting toxic effects/total number tested: 4/8
[9]; 100 mg/kg, 4.0 h
  TOX, number of animals exhibiting toxic effects/total number tested: 0/4
[9]; 300 mg/kg, 0.5 h
  TOX, number of animals exhibiting toxic effects/total number tested: 4/4
[9]; 300 mg/kg, 4.0 h
  TOX, number of animals exhibiting toxic effects/total number tested: 2/2
[9]; mice, relative to MES ED50
  safety ratio: at least five

## O=C1NC(=O)C(c2ccccc2)CO1 (stereo not drawn) [oxazinane-dione 9]
[10]
  stability: unstable

— patent US20030166648A1, “Felbamate derived compounds” (priority 2002, published 2003)
